This passage reports IC50 results from patent publication US8008291B2 (Mimetica Pty Ltd, priority 2008, dated 2011).

Some results are limits rather than exact numbers.

For this assay, the target named is T1, human MC5R (hMC5R) (Homo sapiens, UniProt P33032).
T1 construct: purchased Perkin Elmer RBXMC5M400UA
T1 sequence (P33032 whole entry): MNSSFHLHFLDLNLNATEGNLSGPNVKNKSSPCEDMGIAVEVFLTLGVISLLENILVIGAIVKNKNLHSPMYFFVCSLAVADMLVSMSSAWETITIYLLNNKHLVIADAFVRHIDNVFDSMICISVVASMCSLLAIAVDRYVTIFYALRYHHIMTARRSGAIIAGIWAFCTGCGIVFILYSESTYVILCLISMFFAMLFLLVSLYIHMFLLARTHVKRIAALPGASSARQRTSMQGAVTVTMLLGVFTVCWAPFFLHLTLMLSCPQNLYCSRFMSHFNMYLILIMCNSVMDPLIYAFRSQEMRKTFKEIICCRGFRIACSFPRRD
The assay is described as follows: Human MC5R radioligand binding assay (membranes, [125I] NDP-MSH displacement). To be noted: hMC5R binding; tested as trifluoroacetate or hydrochloride salts, or free bases; read-out: MC5R radioligand IC50. A digest of the protocol: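 Displacement of [125I]NDP-MSH (radioiodinated in house, HPLC-purified) from hMC5R membranes by test compound measured after 1 hr incubation at 37° C.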
One may read the IC50 as the concentration at which inhibition is half-maximal. Regarding `N=C(N)NCCC[C@@H]1N[C@H](CNC(=O)c2ccc3ccccc3c2)CCN(CC(C(=O)Nc2ccccc2)c2ccccc2)C1=O` (stereo partly drawn) [Compound 344, N-(((3S,5S)-3-(3-guanidinopropyl)-2-oxo-1-(3-oxo-2-phenyl-3-(phenylamino)propyl)-1,4-diazepan-5-yl)methyl)-2-naphthamide], the IC50 was less than 10000 nM.

In the case of `CCC(CN1CC[C@@H](CNC(=O)/C=C/c2ccc(Cl)cc2)N[C@@H](CCN)C1=O)c1ccccc1` (stereo partly drawn) [Compound 353, (E)-N-(((3S,5S)-3-(2-aminoethyl)-2-oxo-1-(2-phenylbutyl)-1,4-diazepan-5-yl)methyl)-3-(4-chlorophenyl)acrylamide], the IC50 is less than 100 nM.

On to `C[C@H](CN1CC[C@@H](CNC(=O)c2ccc3ccccc3c2)N[C@@H](CCCN)C1=O)c1ccccc1` [Compound 356, N-(((3S,5S)-3-(3-aminopropyl)-2-oxo-1-((S)-2-phenylpropyl)-1,4-diazepan-5-yl)methyl)-2-naphthamide], for which the IC50 is less than 1000 nM.

In the case of `C[C@@H](CN1CC[C@@H](CNC(=O)c2ccc3ccccc3c2)N[C@@H](CCCN)C1=O)c1ccccc1` [Compound 357, N-(((3S,5S)-3-(3-aminopropyl)-2-oxo-1-((R)-2-phenylpropyl)-1,4-diazepan-5-yl)methyl)-2-naphthamide], the concentration for half-maximal inhibition (IC50) is less than 10000 nM.

`CN(C)CC[C@@H]1N[C@H](CNC(=O)c2ccc3ccccc3c2)CCN(CC(c2ccccc2)c2ccccc2)C1=O` [Compound 358, N-(((3S,5S)-3-(2-(dimethylamino)ethyl)-1-(2,2-diphenylethyl)-2-oxo-1,4-diazepan-5-yl)methyl)-2-naphthamide]: the IC50 was less than 1000 nM.

Consider `O=C(NC[C@@H]1CCN(CC(c2ccccc2)c2ccccc2)C(=O)[C@H](CCCN2CCCCC2)N1)c1ccc2cc(F)ccc2c1` [Compound 359, N-(((3S,5S)-1-(2,2-diphenylethyl)-2-oxo-3-(3-(piperidin-1-yl)propyl)-1,4-diazepan-5-yl)methyl)-6-fluoro-2-naphthamide], for which the IC50 was less than 100 nM.

Regarding `C#Cc1cc(C#C)cc(CN2CC[C@@H](CNC(=O)c3ccc4ccccc4c3)N[C@@H](CCCN)C2=O)c1` [Compound 360, N-(((3S,5S)-3-(3-aminopropyl)-1-(3,5-diethynylbenzyl)-2-oxo-1,4-diazepan-5-yl)methyl)-2-naphthamide], the concentration for half-maximal inhibition (IC50) is less than 1000 nM.

Consider `CCN(CC)CC[C@@H]1N[C@H](CNC(=O)c2ccc3ccccc3c2)CCN(CC(c2ccccc2)c2ccccc2)C1=O` [Compound 362, N-(((3S,5S)-3-(2-(diethylamino)ethyl)-1-(2,2-diphenylethyl)-2-oxo-1,4-diazepan-5-yl)methyl)-2-naphthamide], for which the IC50 is less than 100 nM.

For the molecule `CC[C@@H](CN1CC[C@@H](CNC(=O)c2ccc(Cl)c(Cl)c2)N[C@@H](CCN2CCCCC2)C1=O)c1ccccc1` [Compound 363, 3,4-dichloro-N-(((3S,5S)-2-oxo-1-((R)-2-phenylbutyl)-3-(2-(piperidin-1-yl)ethyl)-1,4-diazepan-5-yl)methyl)benzamide], the IC50 was less than 100 nM.

For `CC[C@@H](CN1CC[C@@H](CNC(=O)/C=C/c2ccc(Cl)cc2)N[C@@H](CCN2CCCCC2)C1=O)c1ccccc1` [Compound 364, (E)-3-(4-chlorophenyl)-N-(((3S,5S)-2-oxo-1-((R)-2-phenylbutyl)-3-(2-(piperidin-1-yl)ethyl)-1,4-diazepan-5-yl)methyl)acrylamide], the IC50 is less than 100 nM.

On to `CC[C@H](CN1CC[C@@H](CNC(=O)/C=C/c2ccc(Cl)cc2)N[C@@H](CCN2CCCCC2)C1=O)c1ccccc1` [Compound 365, (E)-3-(4-chlorophenyl)-N-(((3S,5S)-2-oxo-1-((S)-2-phenylbutyl)-3-(2-(piperidin-1-yl)ethyl)-1,4-diazepan-5-yl)methyl)acrylamide], for which the half-inhibitory concentration (IC50) was less than 10 nM.

`NCC[C@@H]1N[C@H](CNC(=O)c2ccc3cc(Cl)ccc3c2)CCN(CC(c2ccccc2)c2ccccc2)C1=O` [Compound 366, N-(((3S,5S)-3-(2-aminoethyl)-1-(2,2-diphenylethyl)-2-oxo-1,4-diazepan-5-yl)methyl)-6-chloro-2-naphthamide]: the IC50 was less than 100 nM.
